The values below come from patent publication US8658647B2, “Integrin-linked kinase inhibitors” (The Ohio State University Research Foundation, priority 2010, dated 2014).

The subject of data set [1] is Akt phosphorylation at the PDK2 site [S473] versus the PDK1 site [T308]. The experiment in a line: Western blot of Akt phosphorylation at PDK2 (S473) vs PDK1 (T308) sites in PC-3 cells. The format is cell-based, human. The conditions noted are these: 24 h, 2.5 μM, 5% FBS. Here is the method:
(§1) FIG. 2 provides (A) Western blot analysis of the effects of compounds 1-9 on Akt phosphorylation at the PDK1 (T308) and PDK2 (S473) sites in PC-3 human prostate cancer cells after 24 h treatment at 2.5 μM in the presence of 5% fetal bovine serum (FBS), and (B) Dose-dependent effects of compounds 1-9 on the viability of PC-3 cells treated as described above in A. Cell viability was assessed by MTT assay. Points, mean; bars, ±SD.

Data set [2] deals with PC-3 human prostate cancer cells. The experiment in a line: MTT cell viability assay in PC-3 cells. Type of data set: cell-based. The following applies: 24 h, 5% FBS; for IC50: Homo sapiens, read-out: IC50, antiproliferative activity. As for the experimental part: as §1
(§2) FIG. 5 provides the results from the screening of compounds 10-13. (A) Dose-dependent effects of compounds 10-13 and 2 on the viability of PC-3 cells after 24 h treatment […] in the presence of 5% FBS. Cell viability was assessed by MTT assay. Points, mean; bars, ±SD. (B) Western blot analysis of the effects of compounds 2 and 13 on the phosphorylation status of downstream targets of ILK in PC-3 cells.
(§3) In another series of tests, Compounds 10-13 were screened for antiproliferative activity, in parallel with compound 2, by MTT assay in PC-3 human prostate cancer cells. […] The effects of compound 13, vs. compound 2, on the phosphorylation status of downstream targets of ILK in PC-3 cells were evaluated by western blotting.
(In general: Tetrazolium assays rely on reduction of a dye to a coloured formazan, in cell work by metabolically active cells.)

The subject of data set [3] is prostate (PC-3, LNCaP) and breast cancer (MDA-MB-468, MDA-MB-231, CAL51, MCF-7, SKBR3) cell lines vs nonmalignant prostate (PrEC) and mammary epithelial cells …. In words: MTT cell viability in panel of prostate and breast cancer cell lines vs nonmalignant epithelial cells. The format is cell-based, human. The conditions noted are these: 12, 24 or 48 h. As for the experimental part:
Time- and/or dose-dependent effects of compound 2 on cell viability in (A) prostate cancer (PC-3, LNCaP) and nonmalignant prostate epithelial cells (PrEC), and (B) breast cancer (MDA-MB-468, MDA-MB-231, CAL51, MCF-7, SKBR3) and nonmalignant mammary epithelial cells (MEC) were determined. Cells were treated for 12, 24 or 48 h at the indicated concentrations and cell viability determined by MTT assays. Points, mean; bars, ±SD.
As structurally related compounds 2 and 3 differ only in that the N-alkyl moiety, i.e., methyl versus ethyl, compound 2 was selected for more thorough evaluation. Dose- and time-dependent effects of compound 2 on cell viability were determined in a panel of two prostate (PC-3, LNCaP) and five breast cancer (MDA-MB-468, MDA-MB-231, CAL51, MCF-7, SKBR3) cell lines (FIGS. 3A and B). Moreover, cancer cell lines were also evaluated in parallel with nonmalignant prostate and mammary epithelial cells (FIG. 3A, lower panel; 3B lower right panel).

For data set [4], the system named is downstream targets of ILK (Akt-S473; GSK3β-S9). In words: Western blot of downstream targets of ILK, dose-dependent (FIG. 4). The conditions noted are these: PC-3 and MDA-MB-468 cells, 24 h, 5% FBS. The format is cell-based, human. As for the experimental part:
FIG. 4 provides evidence that Compound 2 suppresses the ILK signaling pathway. Western blot analysis of the dose-dependent effect of Compound 2 on downstream targets of ILK (Akt-S473; GSK3β-S9) in PC-3 and […] cells. Cells were treated for 24 h at the indicated concentrations in the presence of 5% FBS.
Based on western blot data showing the selective reduction in phospho-Akt-S473 levels relative to those of phospho-Akt-T308 (FIG. 2A), compound 2 was identified as an inhibitor of PDK2 activity. To evaluate compound 2 for the ability to inhibit ILK signaling, its effect on downstream targets of ILK was assessed in PC-3 and MDA-MB-468 cells by Western blotting (FIG. 4).
(In general: Immunoblotting shows a protein as a band on a membrane.)

The test system of another data set is PC-3 tumor xenografts. In words: PC-3 prostate tumor xenograft model, oral dosing. Type of data set: in vivo. The conditions noted are these: 35 days. Here is the method: PC-3 tumors were established in male athymic nude mice by subcutaneous injection of 5×10^5 PC-3 cells in a total volume of 0.1 ml serum-free medium containing 50% Matrigel. Mice with established tumors were randomized to three groups receiving the indicated treatments once daily by gavage for 35 days. Tumor sizes and body weights were measured weekly. Points, mean tumor volume; bars, ±SD.
The In vivo tumor suppressive activity of compound 2 in the PC-3 prostate tumor xenograft model was also evaluated. Based on the results described above, compound 2 was identified as the lead agent for development as a novel ILK/PDK2 inhibitor. To evaluate the in vivo antitumor activity of compound 2, athymic nude mice bearing established subcutaneous PC-3 tumor xenografts (mean starting tumor volume, 157.1±29.1 mm^3) were treated orally for 35 days with compound 2 at 25 or 50 mg/kg once daily or with vehicle (0.5% methylcellulose and 0.1% Tween 80 in sterile water) (n=5 mice). […] The in vivo efficacy of compound 2 after oral administration indicates its oral bioavailability.

For data set [5], the system named is MCF-7 human breast cancer cells. In words: MTT cell viability assay in MCF-7 cells. The conditions noted are these: MCF7, 24 h, 5% FBS, read-out: IC50, antiproliferative activity. Type of data set: cell-based. As for the experimental part: (§4) Dose-dependent effects of compounds 4-9 in MCF-7 (upper panel) and SKBR3 (lower) cells after 24 h treatment in the presence of 5% FBS. Cell viability was assessed by MTT assay. Points, mean; bars, ±SD.
(§5) Compounds 4-9, which were screened previously in a prostate cancer cell line (FIG. 2), were evaluated for antiproliferative activity in MCF-7 and SKBR3 human breast cancer cells.

For data set [6], the system named is SKBR3 human breast cancer cells. In words: MTT cell viability assay in SKBR3 cells. Type of data set: cell-based. The conditions noted are these: SK-BR-3, 24 h, 5% FBS, read-out: IC50, antiproliferative activity. Here is the method: as §4, §5
Data set [7] relates to downstream targets of ILK. In words: Western blot of phosphorylation status of downstream targets of ILK in PC-3 cells (FIG. 5B). Type of data set: cell-based, human. Here is the method: as §2, §3

In the case of `CNC(=O)CCc1cc(-c2ccc(-c3ccc(C(F)(F)F)cc3)cc2)n(-c2ccc(N3CCNCC3)cc2)n1` [Compound 2, N-methyl-3-(1-(4-(piperazin-1-yl)phenyl)-5-(4′-(trifluoromethyl)-[1,1′-biphenyl]-4-yl)-1H-pyrazol-3-yl)propanamide], the “selective inhibition of Akt-S473 phosphorylation (PDK2 inhibitory activity)” value in data set [1] is given as “marked selective inhibition of Akt-S473 phosphorylation”. The “antiproliferative activity, relative potency among compounds 1-9” value in data set [2] is “most potent among the nine compounds”. Also, the “selectivity of cytotoxicity, cancer cells versus nonmalignant cells” value in data set [3] is listed as “selective cytotoxicity for cancer cells versus their nonmalignant counterparts”. Besides, in data set [4], the phospho-S473-Akt levels result is “marked and selective decrease”; the “phosphorylation of GSK3β” value is “reduced the phosphorylation”. Besides, the “inhibition of PC-3 tumor growth relative to vehicle-treated controls” value with PC-3 tumor xenografts (25 mg/kg once daily oral, P=0.10) amounted to 42%. Besides, the “inhibition of PC-3 tumor growth relative to vehicle-treated controls” value with PC-3 tumor xenografts (50 mg/kg once daily oral, P=0.03) is on record as 56%. Besides, in the data set on PC-3 tumor xenografts (25 or 50 mg/kg once daily oral), the “changes in body weight” value was “nor significant changes in body weight” and the “tolerability, signs of toxicity” value is listed as “no overt signs of toxicity”.

As to `CCNC(=O)CCc1cc(-c2ccc(-c3ccc(C(F)(F)F)cc3)cc2)n(-c2ccc(N3CCNCC3)cc2)n1` [Compound 3, N-ethyl-3-(1-(4-(piperazin-1-yl)phenyl)-5-(4′-(trifluoromethyl)-[1,1′-biphenyl]-4-yl)-1H-pyrazol-3-yl)propanamide], the “selective inhibition of Akt-S473 phosphorylation (PDK2 inhibitory activity)” value in data set [1] was “marked selective inhibition of Akt-S473 phosphorylation”. Further, the “antiproliferative activity, relative potency among compounds 1-9” value in data set [2] was “most potent among the nine compounds”.

Turning to `CCNC(=O)c1cc(-c2ccc(-c3ccc(C(F)(F)F)cc3)cc2)n(-c2ccc(NC(=O)CCN)cc2)n1` [Compound 5, 1-(4-(3-aminopropanamido)phenyl)-N-ethyl-5-(4′-(trifluoromethyl)-[1,1′-biphenyl]-4-yl)-1H-pyrazole-3-carboxamide], the IC50 in data set [5] and in data set [6] was 4 to 5 µM in each case.

With `CNC(=O)CCc1cc(-c2ccc(-c3ccc(C)cc3)cc2)n(-c2ccc(N3CCNCC3)cc2)n1` [Compound 11, N-methyl-3-(5-(4′-methyl-[1,1′-biphenyl]-4-yl)-1-(4-(piperazin-1-yl)phenyl)-1H-pyrazol-3-yl)propanamide], the IC50 in data set [2] was in the range of 2000 to 3000 nM.

For the compound `CNC(=O)CCc1cc(-c2ccc3c(ccc4ccccc43)c2)n(-c2ccc(N3CCNCC3)cc2)n1` [Compound 13, N-methyl-3-(5-(phenanthren-2-yl)-1-(4-(piperazin-1-yl)phenyl)-1H-pyrazol-3-yl)propanamide], the IC50 in data set [2] fell in the range of 2000 to 3000 nM. Moreover, in data set [7], the “phospho-Akt-S473 relative to phospho-Akt-T308” value is reported as “strong reduction” and the “suppressive activity against GSK3β phosphorylation” value is listed as “did not exhibit substantial suppressive activity”.

As usually defined, the IC50 is the concentration that gives 50% inhibition.
